These results are taken from US10428336B2, “Method for modulating plant growth” (The Australian National University, priority 2013, dated 2019).

The test system of assay [1] is Arabidopsis thaliana (accession Col-0). In words: Root growth assay of Col-0 plants on standard medium supplemented with synthetic CEP peptides. The format is in vivo. The note with it: 12-day-old Col-0 plants, peptide at 10−6 M (1 μM), compared to untreated plants. The method, then: FIG. 8—CEP synthetic peptides decrease primary root length and lateral root density. (A) CEP peptides used in growth assays. (hyP) indicates hydroxyproline residues. (B) Alignment of CEP3, CEP5 and CEP9.1 peptide domains. (C) Primary root length and lateral root density of 12-day-old Col-0 plants grown on standard medium supplemented with 1 μM of the specified peptide. n≥7 plants. (D) Differential biological activity of CEP3, CEP5 and CEP9 peptide variants. The histogram indicates the lowest concentration at which a peptide elicited a significant reduction in primary root length compared to untreated plants (P<0.05). Col-0 plants were grown vertically for 12 days on standard medium supplemented with peptide concentrations ranging from 10^−6 M to 10^−12 M. n=7-16 plants. Error bars show standard error. *P≤0.05; **P≤0.01; *** P≤0.001 (two-sample t-test, Genstat).
For root assays, seeds of Arabidopsis thaliana (accession Col-0) were surface sterilized with 6.25% bleach, stratified for 3-4 days and sown onto plates. […] Plates were imaged using an Epson scanner and images were analysed using the SmartRoot plugin (Lobet et al., 2011) in ImageJ. Statistically significant differences were determined using a two-sample t-test (Genstat 14th edition) where appropriate. […]

The test system of assay [2] is M. truncatula roots. In words: Exogenous application of synthetic CEP peptides to M. truncatula roots. It is filed as in vivo, Medicago truncatula. The note with it: synthetic ligand applied to roots. The text has this:
The CEP peptides were synthesized at the Biomolecular Resource Facility, The Australian National University. The 15 amino acid (aa) peptides corresponding to the conserved domains of MtCEP1 (AFQHypTTPGNSHypGVGH and EFQKTNPGHSHypGVGH—SEQ ID Nos: 451 and 452 respectively—where Hyp indicates hydroxy proline residue) and M. hapla MhCEP2 (AFRHypTAPGHSHypGVGH; SEQ ID NO: 453) were synthesized and validated as previously described in Djordjevic M A, et al. (2011), “Border sequences of Medicago truncatula CLE36 are specifically cleaved by endoproteases common to the extracellular fluids of Medicago and soybean”, J Exp Bot 62(13):4649-4659. The root length of wild-type plants was measured four days after transfer to Fåhraeus-medium containing the synthetic peptide. For the hormone assays, A17 plants were grown on Fåhraeus-medium for 10 days before transferring to Fåhraeus-medium containing 10^−6 M of the respective phytohormones; 1-aminocyclopropane-1-carboxylic acid (ACC), 6-benzylaminopurine (BAP), gibberellic acid (GA), synthetic analog of strigolactone (GR24), methyl jasmonate (MeJA) and 1-naphthaleneacetic acid (NAA).

For assay [3], the system named is Arabidopsis root growth. The note with it: synthetic 15 amino acid peptide at 10^−6 M to 10^−7 M; cited from earlier work.
For assay [4], the system named is Brachypodium distachyon BD21. In words: Shoot growth of B. distachyon in layered agar medium containing CEP peptide. It is filed as in vivo. The note with it: 16 day old plants, 1 μM peptide in medium with barrier; for shoot length: vs no peptide controls, ANOVA. As to the method:
Brachypodium. distachyon BD21 seeds were sterilised by washing in 80% ethanol for 1 minute, followed by shaking in 50 ml of 10% stock sodium hypochlorite (Northfork) with 200 μl of Triton X-100 (per 50 mL) for 5 minutes, before rinsing three times in sterile water. Seeds were then stratified for 3 days in the dark at 4° C. to induce synchronized germination. Plants were grown at 21° C. on a 16/8 h light/dark cycle in a constant environment walk-in cabinet (100 μmol/m^−2/s^−2).
Murashige and Skoog basal medium (Sigma-Aldrich Corporation, St. Louis, USA) was prepared (2.2 g/L, sterile RO water), 10% MES buffer added, and the pH adjusted to 5.7 using 1 M KOH. Falcon tubes (BD Biosciences, Australia; 50 mL max volume) containing two agar layers were prepared using the following ranges of agar concentrations: 0.2%, 0.4%, 0.5%, 0.8%, 1.0% for soft top layer and 0.5%, 1.0%, 1.5%, 2.0%, 2.5%, 3.0% and 4.0% for hard bottom layer. Type-M agar (Sigma-Aldrich Corporation) was used in all experiments. The hard layers contained 15 mL of agar and the (upper) soft layers contained 10 mL of agar. Seeds were placed one per falcon tube for root assays, with embryos facing away from the media.
Synthetic CEP peptides corresponding to those predicted to be the final products of the BdCEP1 and AtCEP5 coding sequences (SEQ ID NOs: 483 and 11, respectively) were prepared (but the BdCEP1 peptide was synthesized missing the first two amino acids, and designated as BdCEP3a in FIGS. 16 and 17) and added to molten media (60° C.) to a final concentration of 1μM.
Tubes were set up with optimal agar concentrations of 0.5% for soft top layer and 2.5% for hard bottom layer which induced a strong mechanical response in untreated plants. A layered agar system with no peptide addition and an un-layered system (0.5%, uniform agar concentration; 25 ml) with no peptide addition were used as controls. Each tube was fitted into an 8 slot Falcon tube rack which was covered in aluminum foil to minimize light exposure to the root systems. This system allowed tubes to be periodically removed for easy visual inspection. The upper level of the soft layer was below the level of the rack.
Shoot length was measured at the end of the growth period. Data obtained from analyzing root system measurements were statistically analyzed.

Square brackets hold non-standard residues; d marks the D form. Ends that are not written are not given here. Hyp = O=C(O)[C@@H]1C[C@@H](O)CN1

In the case of “DFVPTSPGNSPGVGH [CEP9.1, synthetic non-hydroxylated CEP9.1 peptide domain]”, in assay [1], the lateral root density entry is “reduced lateral root density” and the primary root length entry was “much weaker effect on primary root length”.

For the substance “AFQHypTTPGNSHypGVGH and EFQKTNPGHSHypGVGH [MtCEP1]”, in assay [2], the “root phenotype (periodic bumps resembling galls)” value is recorded as “periodic bumps induced”. For “CEP1: synthetic 15 amino acid CEP1 peptide of Ohyama et al., 2008 (DFRPTNPGNSPGVGH; ends and bridges not checked; listed as Arabidopsis thaliana)”, the root growth entry in assay [3] is given as “inhibited root growth”. On to “DSTTPGHSPSIGH (also: hydroxyproline predicted at Pro5 and Pro9, not given here for synthetic peptide) [BdCEP1, BdCEP1 peptide synthesized missing the first two amino acids, designated BdCEP3a]”, for which, in assay [4], the “number of leaves per plant on average” value was determined as 4.7 leaves and the shoot length result is given as “significantly longer shoots”. The corresponding values for DFRPTTPGHSPGIGH [AtCEP5] are 4.9 leaves and “significantly longer shoots”.

In the case of AFR[Hyp]TAPGHS[Hyp]GVGH [MhCEP2], the “root phenotype (periodic bumps resembling galls)” value in assay [2] is “periodic bumps induced”.
